Measured values from patent publication US20260378560A1, “APPROACHES TO DESIGNING AND PERFORMING COMPRESSED BIOLOGICAL EXPERIMENTS AND SYSTEMS FOR IMPLEMENTING THE SAME” (EXVIVO LABS INC., priority 2023, published 2026).

What was measured:
JURKAT = assay: ATP-based luminescence cell viability (CellTiter Glo), drug response score, JURKAT; conditions: Target compression
Text: (§1) As part of a screen, a drug could be screened at different concentrations ranging from a lowest concentration to a highest concentration. In such a scenario, multiple data structures may be obtained by the screening platform 210. […] With these multiple data structures, the analysis module 218 can generate a dose-response curve that describes the magnitude of the response of the biological target, as a function of exposure to different concentrations of the drug. Further, the analysis module 218 can calculate a metric that is indicative of the response of the biological target. In the event that the biological target is one of multiple biological targets that are introduced to the pools of drugs, the metric can be used by the screening platform 210 to better understand the relative magnitude of responses. One example of a metric is drug-response score (“DRS”). DRS can be calculated as a continuous function of multiple parameters of the non-linear dose-response curve, including the slope at the half-maximal effective concentration (also called “EC50”) and the top and bottom asymptotes of the dose-response curve. DRS can be calculated as follows: […]
(§2) where y is a continuous function of the variable dose x, a is the maximal response (i.e., the top asymptote of the curve), b is the slope of the curve, c is the IC50 (i.e., half-maximal inhibitory concentration), and d is the minimal response (i.e., the bottom asymptote of the curve). Other examples of metrics include those output by sigmoidal and Hill slide functions that, like DRS, incorporate multiple aspects of the dose-response curve into a continuous function.
(§3) Total cell viability was measured for each cancer cell line using an Adenosine TriPhosphate (“ATP”) assay, and more specifically an ATP-based luminescence assay (i.e., CellTiter Glo). Each cancer drug was screened at multiple concentrations ranging from one nanomolar (nM) to ten micromolar (UM) in order to generate a dose-response curve and calculate a drug response score (“DRS”) for each cancer cell line. The DRS was calculated as a continuous function of multiple parameters of the non-linear dose-response curve, including the slope at the half-maximal effective concentration (also called “EC50”) and the top and bottom asymptotes of the dose-response curve. […] After total cell viability was measured and DRS was calculated, the DRS of each cancer cell line in the pool was deconvolved for each cancer drug.
(§4) DRS for these anchor cell lines are bolded and italicized. Anchors can be identified based on frequency of the cell lines in pools with high DRS versus low DRS. At a high level, an anchor is predicted to be the cell line with the lowest individual DRS. In order to deconvolute individual cell line DRS values from pool DRS values, the anchor can start with an assumed DRS value of zero. Each pool can then be expressed as a polynomial of variables (cell lines in the pool) and constants (DRS value of the pool). The DRS value of each cell line can then be solved for using the anchor value and overlapping polynomial expressions. When multiple values are calculated for the final target solved from the polynomials, then the anchor has a non-zero value that can be determined based on the difference in the calculated value of the final target.
(§5) Each pool represented a co-culture of three cell lines (“Target Compression”).

SUP-B15 [1] = assay: ATP-based luminescence cell viability (CellTiter Glo), drug response score, SUP-B15; parameters: scale not given here; conditions: SUP-B15, screened individually (Compress: None)
SUP-B15 [2] = assay: as above; parameters: scale not given here
Text: as §1, §2, §3, §4, §5

CCRF-HSB2 = assay: ATP-based luminescence cell viability (CellTiter Glo), drug response score, CCRF-HSB2
Text: as §1, §2, §3, §4, §5

NALM-6 = assay: ATP-based luminescence cell viability (CellTiter Glo), drug response score, NALM-6; conditions: for DRS from deconvolution: NALM-6, Target compression, 7 Pick 3 pools; for drug response score (DRS): NALM-6, screened individually (Compress: None)
Text: as §1, §2, §3, §4, §5

CCRF-CFM = assay: ATP-based luminescence cell viability (CellTiter Glo), drug response score, CCRF-CFM; parameters: scale not given here; conditions: for DRS from deconvolution: Sample compression, 5 Pick 3 pools; for drug response score (DRS): screened individually (Compress: None)
MOLT-4 = assay: Cell viability (CellTiter Glo), compressed perturbation pools with informed pool design, SUM-based deconvolution, MOLT-4; parameters: scale not given here
Method in brief: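 Cells were exposed to cancer drugs at 1 nM–10 μM, and viability was read by ATP luminescence (CellTiter Glo) to fit dose-response scores. Pools were overlapping and class-informed: same-class drugs went to different cohorts, and PI3K was kept apart from MAPK inhibitors. Per-drug scores were recovered by additive SUM deconvolution, with the lowest-ranked drug anchored at zero where needed.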

[3] = SUP-B15, Sample compression, 5 Pick 3 pools
[4] = SUP-B15, Target compression, 5 Pick 3 pools
[5] = SUP-B15, Target compression, 6 Pick 3 pools
[6] = SUP-B15, Target compression, 7 Pick 3 pools
[7] = CCRF-HSB2, Sample compression, 5 Pick 3 pools
[8] = CCRF-HSB2, Target compression, 5 Pick 3 pools
[9] = CCRF-HSB2, Target compression, 6 Pick 3 pools
[10] = CCRF-HSB2, Target compression, 7 Pick 3 pools

SMILES	DRS from deconvolution (JURKAT; 6 Pick 3 pools)	DRS from deconvolution (JURKAT; 7 Pick 3 pools)	drug response score (DRS) (SUP-B15 [1])	DRS from deconvolution (SUP-B15 [2]; [3])	DRS from deconvolution (SUP-B15 [2]; [4])	DRS from deconvolution (SUP-B15 [2]; [5])	DRS from deconvolution (SUP-B15 [2]; [6])	DRS from deconvolution (CCRF-HSB2; [7])	DRS from deconvolution (CCRF-HSB2; [8])	DRS from deconvolution (CCRF-HSB2; [9])	DRS from deconvolution (CCRF-HSB2; [10])	DRS from deconvolution (NALM-6)	drug response score (DRS) (NALM-6)	DRS from deconvolution (CCRF-CFM)	drug response score (DRS) (CCRF-CFM)	DRS, MOLT-4, SUM (MOLT-4)
N#Cc1ccnc(N2C(=O)CC[C@H]2C(=O)N(c2cncc(F)c2)[C@H](C(=O)NC2CC(F)(F)C2)c2ccccc2Cl)c1 [Ivosidenib]	0.84	0.70	0.00	0.09	0.00	0.00	0.00	1.52	1.74	1.53	1.61	0.00	0.00	0.99	1.00	–
C=CC(=O)Nc1cc(Nc2nccc(-c3cn(C)c4ccccc34)n2)c(OC)cc1N(C)CCN(C)C [Osimertinib]	–	–	–	–	–	–	–	–	–	–	–	–	–	–	–	0.54
CC1(C)CCC(CN2CCN(c3ccc(C(=O)NS(=O)(=O)c4ccc(NCC5CCOCC5)c([N+](=O)[O-])c4)c(Oc4cnc5[nH]ccc5c4)c3)CC2)=C(c2ccc(Cl)cc2)C1 [Venetoclax]	0.00	1.88	37.40	37.02	37.99	37.35	35.04	0.00	0.00	0.00	0.00	9.54	7.30	0.50	1.10	2.44
COc1cc2ncnc(Nc3ccc(F)c(Cl)c3)c2cc1OCCCN1CCOCC1 [Gefitinib]	–	–	–	–	–	–	–	–	–	–	–	–	–	–	–	2.22
Cc1[nH]c2ccccc2c1CCNCc1ccc(/C=C/C(=O)NO)cc1 [Panobinostat]	14.37	13.23	22.40	25.45	21.44	22.36	21.78	18.63	19.75	17.30	17.26	15.85	16.30	18.07	17.50	–
COc1c(OCCCN2CCOCC2)ccc2c1N=C(NC(=O)c1cnc(N)nc1)N1CCN=C21 [Copanlisib]	0.00	2.30	2.84	1.80	1.98	3.00	1.91	7.35	7.82	7.97	7.10	13.74	13.14	15.72	15.14	–
